# What was measured:
# [1] = test system: Klebsiella pneumoniae expressing VIM-1 (IHMA599644); format: cell-based; conditions: with imipenem 1 μg/ml; 95% inhibition of bacterial growth
# Method in brief: (§1)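 Colonies from sheep-blood agar plates are resuspended in saline, then diluted 1:100 in 1.1× CAMHB. Bacteria receive imipenem (1 μg/ml) and test compound, then incubate 22–24 h at 35 °C. Potentiation is reported as MITC95 from absorbance.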
# [2] = test system: Escherichia coli expressing NDM-1 (CLB30016); format: cell-based; conditions: with imipenem 1 μg/ml; 95% inhibition of bacterial growth
# Method in brief: as §1
# [3] = test system: Serratia marcescens expressing IMP-1 (CL5741); format: cell-based; conditions: with imipenem 1 μg/ml; 95% inhibition of bacterial growth
# Method in brief: as §1
# [4] = test system: P. aeruginosa MB9798 (efflux+, IMP-1 plasmid); conditions: for MB9798 MITC95 P. aeruginosa uM Efflux WT: efflux + (MB9798) strain, imipenem at 2 μg/mL, in the presence of a class A, C, D serine β-lactamase inhibitor closely related to relebactam; for Efflux ratio: fold difference between efflux+ (MB9798) and efflux− (MB9799) strains
# Method in brief: (§2)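 PAO1-derived isogenic pair (oprD+, inducible AmpC), efflux+ MB5919 or efflux− MB5890 parent, carrying an electroporated IMP-1 plasmid from a clinical isolate. Microbroth MIC with fixed imipenem and/or ceftazidime (usually CLSI breakpoint) plus fixed class A/C inhibitor; MBL inhibitor serially titrated, concentration restoring susceptibility recorded.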
# [5] = target: VIM-2 (Escherichia coli, UniProt Q5U7L7); assay: biochemical; conditions: CCF2-FA fluorescence assay; read-out: VIM2 IC50
# [6] = target: VIM-1 (Pseudomonas aeruginosa (strain ATCC 15692 / DSM 22644 / CIP 104116 / JCM 14847 / LMG 12228 / 1C / PRS 101 / PAO1), UniProt A0A0F7KYQ8); assay: biochemical; conditions: CCF2-FA fluorescence assay, 2 hours at 25° C.; read-out: VIM1 IC50
# Method in brief: (§3)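 IC50s come from 4-parameter fits of inhibition versus inhibitor concentration, tested from 20 μM down to 0.00063 μM. Enzyme, CCF2-FA (1.25 μM) and inhibitor react 2 h at 25° C, pH 7, with 10 μM ZnSO4 and 0.005% Tween-20.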
# [7] = target: IMP-1 (Serratia marcescens, UniProt P52699); assay: biochemical; conditions: CCF2-FA fluorescence assay, 2 hours at 25° C.; read-out: IMP1 IC50
# Method in brief: as §3
# [8] = target: NDM-1 (Klebsiella pneumoniae, UniProt C7C422); assay: biochemical; format: biochemical; conditions: CCF2-FA fluorescence assay, 2 hours at 25° C.
# Method in brief: as §3
# [9] = test system: P. aeruginosa MB9799 (efflux-, IMP-1 plasmid); format: cell-based, Pseudomonas aeruginosa; conditions: efflux − (MB9799) strain; imipenem at 2 μg/mL; in the presence of a class A, C, D serine β-lactamase inhibitor closely related to relebactam
# Method in brief: as §2
# IMP-1, sequence (P52699 whole entry, looked up, species assumed): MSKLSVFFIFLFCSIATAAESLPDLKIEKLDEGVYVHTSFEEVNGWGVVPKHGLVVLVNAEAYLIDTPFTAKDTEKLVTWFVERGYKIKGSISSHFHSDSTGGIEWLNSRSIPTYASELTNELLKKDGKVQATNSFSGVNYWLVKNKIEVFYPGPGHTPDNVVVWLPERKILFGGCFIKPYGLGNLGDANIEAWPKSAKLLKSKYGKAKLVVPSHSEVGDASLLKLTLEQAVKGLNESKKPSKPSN
# NDM-1, sequence (C7C422 whole entry, looked up, species assumed): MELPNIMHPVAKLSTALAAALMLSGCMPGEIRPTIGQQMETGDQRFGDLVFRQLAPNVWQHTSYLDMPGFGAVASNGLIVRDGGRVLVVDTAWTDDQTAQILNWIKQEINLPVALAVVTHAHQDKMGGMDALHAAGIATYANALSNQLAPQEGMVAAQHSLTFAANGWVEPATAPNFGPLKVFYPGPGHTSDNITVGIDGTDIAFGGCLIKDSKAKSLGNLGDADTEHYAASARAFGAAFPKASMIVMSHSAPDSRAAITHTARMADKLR
SMILES,IHMA599644 K. pneumoniae MITC95 VIM [1] [µM],CLB30016 E. coli MITC95 NDM [2] [µM],CL5741 S. marcescens MITC95 IMP [3] [µM],MB9798 MITC95 P. aeruginosa uM Efflux WT [4] [µM],Efflux ratio [4],IC50 [5] [nM],IC50 [6] [nM],IC50 [7] [nM],IC50 [8] [nM],MB9799 MITC95 P. aeruginosa uM Efflux Mutant [9] [µM]
"NCC1=CCN(c2ccc(S(=O)(=O)NC[C@H](O)CN)c(S(N)(=O)=O)c2-c2nn[nH]n2)CC1 [Example 175, (R)-N1-(3-amino-2-hydroxypropyl)-4-(4-(aminomethyl)-5,6-dihydropyridin-1(2H)-yl)-3-(2H-tetrazol-5-yl)benzene-1,2-disulfonamide]",1.56,0.39,0.78,1.56,2.00,4.18,0.24,3.66,2.55,0.78
"CC1CN(c2ccc(S(=O)(=O)NC[C@H](O)CN)c(S(N)(=O)=O)c2-c2nn[nH]n2)CCN1CCO.O=C(O)C(F)(F)F.O=C(O)C(F)(F)F (stereo partly drawn) [Example 176, N1-((R)-3-amino-2-hydroxypropyl)-4-(4-(2-hydroxyethyl)-3-methylpiperazin-1-yl)-3-(2H-tetrazol-5-yl)benzene-1,2-disulfonamide bis(2,2,2-trifluoroacetate) salt]",1.56,0.39,0.39,3.13,2.00,11.7,2.76,5.1,2.51,1.56
"NC[C@@H](O)CNS(=O)(=O)c1ccc(N2CCC(C3COC(=O)N3)CC2)c(-c2nn[nH]n2)c1S(N)(=O)=O (stereo partly drawn) [Example 177, N1-((R)-3-amino-2-hydroxypropyl)-4-(4-(2-oxooxazolidin-4-yl)piperidin-1-yl)-3-(2H-tetrazol-5-yl)benzene-1,2-disulfonamide]",6.25,6.25,3.13,1.56,1.00,0.66,0.15,0.19,0.57,1.56
"NC[C@@H](O)CNS(=O)(=O)c1ccc(N[C@H]2CCC[C@H]2N)c(-c2nn[nH]n2)c1S(N)(=O)=O [Example 178, N1-((R)-3-amino-2-hydroxypropyl)-4-(((1S,2R)-2-aminocyclopentyl)amino)-3-(2H-tetrazol-5-yl)benzene-1,2-disulfonamide]",6.25,1.56,6.25,25.00,4.00,132,80.1,101,29,6.25
"NC[C@@H](O)CNS(=O)(=O)c1ccc(N[C@@H]2CCC[C@H]2N)c(-c2nn[nH]n2)c1S(N)(=O)=O [Example 179, N1-((R)-3-amino-2-hydroxypropyl)-4-(((1R,2R)-2-aminocyclopentyl)amino)-3-(2H-tetrazol-5-yl)benzene-1,2-disulfonamide]",12.50,0.78,6.25,25.00,4.00,83.1,49.9,69.2,26.2,6.25
"NS(=O)(=O)c1c(S(=O)(=O)N[C@@H]2CCNC2)ccc(NCC2CCNCC2)c1-c1nn[nH]n1 [Example 183, (R)-4-((piperidin-4-ylmethyl)amino)-N1-(pyrrolidin-3-yl)-3-(2H-tetrazol-5-yl)benzene-1,2-di sulfonamide]",2.34,1.17,1.56,3.13,2.67,69.7,5.89,12.4,6.26,1.17
"C[C@H](CN)NS(=O)(=O)c1ccc(N2CCC(CCN)CC2)c(-c2nn[nH]n2)c1S(N)(=O)=O [Example 185, (R)-4-(4-(2-aminoethyl)piperidin-1-yl)-N1-(1-aminopropan-2-yl)-3-(2H-tetrazol-5-yl)benzene-1,2-disulfonamide]",1.56,0.78,1.56,0.78,1.00,0.71,0.04,0.6,0.33,0.78
"NCC1CCN(c2ccc(S(=O)(=O)N[C@H](CN)CO)c(S(N)(=O)=O)c2-c2nn[nH]n2)CC1 [Example 186, (R)-N1-(1-amino-3-hydroxypropan-2-yl)-4-(4-(aminomethyl)piperidin-1-yl)-3-(2H-tetrazol-5-yl)benzene-1,2-disulfonamide]",1.56,3.13,1.56,1.56,2.00,68.7,2.85,40.6,18.7,0.78
"NCCC1CCN(c2ccc(S(=O)(=O)N[C@@H](CN)CO)c(S(N)(=O)=O)c2-c2nn[nH]n2)CC1 [Example 187, (S)-N1-(1-amino-3-hydroxypropan-2-yl)-4-(4-(2-aminoethyl)piperidin-1-yl)-3-(2H-tetrazol-5-yl)benzene-1,2-disulfonamide]",0.78,0.78,0.78,0.39,1.00,0.49,0.03,0.24,0.13,0.39
"NCCC1CCN(c2ccc(S(=O)(=O)N[C@H](CN)CO)c(S(N)(=O)=O)c2-c2nn[nH]n2)CC1 [Example 188, (R)-N1-(1-amino-3-hydroxypropan-2-yl)-4-(4-(2-aminoethyl)piperidin-1-yl)-3-(2H-tetrazol-5-yl)benzene-1,2-disulfonamide]",1.56,0.78,0.78,0.78,1.00,4.85,0.13,3.68,2.86,0.78
"NCC1CCN(c2ccc(S(=O)(=O)N[C@@H](CN)CO)c(S(N)(=O)=O)c2-c2nn[nH]n2)CC1 [Example 189, (S)-N1-(1-amino-3-hydroxypropan-2-yl)-4-(4-(aminomethyl)piperidin-1-yl)-3-(2H-tetrazol-5-yl)benzene-1,2-disulfonamide]",0.78,0.39,0.78,0.78,2.00,2.31,0.06,0.77,0.3,0.39
"NCCNS(=O)(=O)C1CCN(c2ccc(S(=O)(=O)NC[C@H](O)CN)c(S(N)(=O)=O)c2-c2nn[nH]n2)CC1 [Example 190, (R)—N1-(3-amino-2-hydroxypropyl)-4-(4-(N-(2-aminoethyl)sulfamoyl)piperidin-1-yl)-3-(2H-tetrazol-5-yl)benzene-1,2-disulfonamide]",1.56,3.13,0.78,0.78,1.00,0.85,0.09,0.61,0.67,0.78

# From patent US11207312B2, “Metallo-beta-lactamase inhibitors and methods of use thereof” (priority 2017, dated 2021)
